Test results from a melting point compilation (Tetko et al.).

| Compound | melting point [°C] |
| --- | --- |
| C/C(=N\CC(O)CO)c1c(O)c2ccccc2n(-c2ccccc2)c1=O (stereo not given) | 217 to 218 |
| OCc1ccco1 | -14.6 |
| CCOC(=O)NC(=O)Nn1c(S)nnc1C(F)(F)F | 232 |
| Cn1c(=O)n(-c2ccccc2)c(=O)c2c3c(sc21)CCCC3 | 249 to 251 |
| N#CCC(N)=S | 113 to 119 |
| BrCc1ccc(I)cc1 | 80 |
| Nc1ccc(-c2ccc(Cl)cc2)cc1 | 134 |
| CCCCCCCCCCCCCCCCOC(C)=O | -18.5 |
| O=C(Cl)c1cnccn1 | 150 |
| BrC/C=C/CBr | 53.4 |
| CC(C)OC(=O)N=NC(=O)OC(C)C | 3 to 5 |
| O=C(Nc1ccc(N=Nc2ccc(N=Nc3ccc(NC(=O)c4ccccc4)cc3)cc2)cc1)c1ccccc1 | 336 |
| Nc1ccc(-n2cccn2)cc1 | 54 to 55 |
| O=C1c2ccccc2C(=O)C1C(=O)C(c1ccccc1)c1ccccc1 | 146 |
| CC(=O)CCC(C)C | -74 |
| Clc1ccc(C2NN=C3c4ccccc4CCC32)cc1 (stereo not given) | 181 to 184 |
| O=C1C(C(O)c2ccccc2Cl)C(C(F)(F)F)=NN1c1ccccc1 (stereo not given) | 251 |
| O=Cc1ccc(N2CCCCC2)cc1 | 62 to 63 |
| CC(=O)OC1CC2CCC1(C)C2(C)C (stereo not given) | 29 |
| Clc1cc2c(cc1Cl)Oc1c(Cl)c(Cl)cc(Cl)c1O2 | 206 |

| Compound | melting point [°C] |
| --- | --- |
| ON=C1CCCSC1 | 103 to 104 |
| BrCCc1ccccc1 | -56 |
| O=[N+]([O-])c1ccc(NN=C(Cc2ccccc2)C(O)Cc2ccccc2)cc1 (stereo not given) | 122 |
| FC(F)(F)C(Cl)Cl | -107 |
| OC1CCC(Cl)CC1 (stereo not given) | 82.5 |
| CC1(C)C2CCC1(C)C(NC(=O)c1ccc([N+](=O)[O-])cc1)C2NC(=O)c1ccc([N+](=O)[O-])cc1 (stereo not given) | 170 |
| O=C(CBr)C(c1ccccc1)c1ccccc1 | 64 to 66 |
| OCC1(O)COC(O)(CO)CO1 (stereo not given) | 79 |
| c1ccc(-c2nc3ccccc3nc2-c2ccc3ccccc3c2)cc1 | 121 to 122 |
| O=S(=O)(O)CS(=O)(=O)O | 98 |
| Brc1nc2ccccc2[nH]1 | 200 |
| Cc1nc(Cl)nc(N)c1N | 249 to 252 |
| CC12CCC(=O)CC1CCC13OC14CCC(=O)C4(C)CCC23 (stereo not given) | 171 to 173 |
| CCCCCCCCCC(N)=O | 108 |
| O=[N+]([O-])c1ccc(NN=C(c2ccccc2)c2ccccc2)cc1 | 156 |
| Cc1ccc(S(=O)(=O)OCC2Cc3ccccc3O2)cc1 (stereo not given) | 72 to 73 |
| NC(c1ccccc1)c1ccccc1 | 34 |
| ClCCc1ccccc1 | -60 |
| CCCCCCCCCCCCCCCC(=O)OCCO | 51 |
| CC(O)CO (stereo not given) | -60 |

More lines, now with the values ahead:

| melting point [°C] | Compound |
| --- | --- |
| 131 to 134 | COc1ccc(P(c2ccc(OC)cc2)c2ccc(OC)cc2)cc1 |
| 143 | Cc1cc(I)cnc1NC(=O)C(C)(C)C |
| 74 | O=[N+]([O-])c1ccccc1SCl |
| 144 | CC(=O)C1(C)CCC2C3C=C(C)C4=CC(=O)CCC4(C)C3CCC21C (stereo not given) |
| 283 | COC(=O)c1ccccc1NC(=S)NNC(=O)C(=O)c1c[nH]c2ccccc12 |
| 148 | CC(=O)NC(=O)c1ccccc1O |
| 92.5 | CCOCOc1ccc(C(=O)Nc2cccc(Cl)c2Cl)cc1 |
| 152 | Cc1ccc(-n2c(C)nc3cc([N+](=O)[O-])ccc32)cc1 |
| 49 | COc1ccc(O)c(C(C)=O)c1 |
| 111 to 113 | CCOC(=O)c1c(C)nsc1N |
| 118 to 119 | O=S(=O)(Cl)c1ccc2ncsc2c1 |
| 210 to 212 | O=[N+]([O-])c1ccc2nc(C(Cl)(Cl)Cl)[nH]c2c1 |
| 20 | CCN(C)C(=O)COC(=O)c1ccccc1 |
| 105 to 107 | COC(=O)c1cccc(Cn2nc(C)c(Br)c2C)c1 |
| 172 to 175 | NC(=O)NCc1ccc(F)cc1 |
| 135 to 136 | CC(=O)N1C(=O)N2CCc3ccccc3C2(c2ccc(Cl)cc2)C1=O (stereo not given) |
| 35 | O=[N+]([O-])c1ccc(F)cc1Cl |
| 104 | Cc1cccc(OCC(=O)O)c1 |
| 156 to 158 | O=Nc1ccc2ccccc2c1O |
| 70 to 71 | COC(=O)c1c(C)oc(C)c1S(=O)(=O)Cl |
| 43 | COc1cc(OC)cc(C(=O)Cl)c1 |
| 133 | O=C(OC(=O)c1ccncc1)c1ccncc1 |
| 49 to 51 | Brc1ccc2c(c1)OCOC2 |
| 90 to 92.5 | CCOC=C(C#N)S(=O)(=O)c1ccc2ccccc2c1 |
| 205 | NNc1ccc(C(=O)O)cc1 |
| 132 | CC(C)(C)OC(=O)N[C@@H](Cc1ccc(Cl)cc1Cl)C(=O)O |
| 99 to 101 | CC(C)(C)OC(=O)N1CCC(Oc2ccc([N+](=O)[O-])cc2)CC1 |
| 189 | Nc1cccc2c(O)cccc12 |

| melting point [°C] | Compound |
| --- | --- |
| 144 to 146 | O=C(O)C1CC(=O)N(Cc2cccs2)C1 (stereo not given) |
| 290 to 292 | Cc1nc2scc(-c3ccccc3)c2c(=O)n1NC(=O)c1ccc(Cl)cc1Cl |
| 102 | O=C(c1ccccc1)c1ccc(Cl)c(Cl)c1 |
| 44 to 47 | CCCCCCCCCCCCOc1ccc(C(C)=O)cc1 |
| 190 | CCOC(=O)C1=C(C)NC(=O)NC1c1ccc(O)c(OC)c1 (stereo not given) |
| 85 to 91 | CCn1c2ccccc2c2cc(C=O)ccc21 |
| 226 | N=C(N)NC(=O)Cc1c(Cl)cccc1Cl |
| 142 | COc1ccc(-c2csc(/C(C#N)=C/c3ccc(Cl)cc3Cl)n2)cc1 |
| 124 | COC(=O)c1cc2cc3c(cc2cc1C(=O)OC)CC3 |
| 87 to 88 | CCOC(=O)c1[nH]c(C)c(CC)c1C |
| 94 to 95 | CCCC(=O)c1ccc(N)cc1 |
| 34 | Fc1cc(Br)ccc1Br |
| 81.5 to 83 | O=C1Cc2cccc(Br)c21 |
| 66 to 68 | Cc1noc(-c2ccccc2C=O)n1 |
| 149 | COc1ccc(C(=O)CCC(=O)O)cc1 |
| 203 to 206 | Cn1c(N)nc2ccccc21 |
| 80 | COc1ccc2c(=O)n3c(cc2c1)CCCC3 |
| 247 | O=C(O)C=Cc1ccc(F)cc1Cl |
| 122 to 124 | Cc1nc(-c2ccccc2)sc1C(=O)Cl |
| 51 | Cc1ccc(F)c(C#N)c1 |
| 252 | Cc1ccccc1N1C(=O)c2cc(S(N)(=O)=O)c(Cl)cc2NC1C (stereo not given) |
| 160 | COc1ccc(Br)c(C(N)=O)c1 |
| 28 | Cc1nc(-c2ccccc2)c(C)s1 |
| -4 | CCCCCCCCCCOC(=O)c1ccccc1C(=O)OCCCCCC |
| 119 | COc1cccc2c(=O)c(=O)c12 |
| 65 | Cc1cc(C)c(N)c(I)c1 |
| 254 | CC(=O)C(C(C)=O)=C1SC2=C(C(=O)c3ccccc3C2=O)N1c1ccccc1 |
